Assay results taken from US8962574B2 (Boehringer Ingelheim International GmbH, priority 2008, dated 2015).
Where “and” joins values, the source holds several entries; their conditions need not be identical. Equal values may be shown once. Read-outs that look alike come from different tables or passages of the source.

Experiments:
[1] = test system: patients with chronic atrial fibrillation; test: PETRO phase 2 12-week dose finding study; assay type: in vivo, human; details: 12 weeks
Text: Primary endpoints were bleeding events and changes in D-dimer. […] Minor bleeding was dose related.

[2] = Clinical pharmacokinetics and pharmacodynamics of dabigatran etexilate; assay type: in vivo; details: after dosing
Text: Ezekowitz M D, et al., Dabigatran with or without concomitant aspirin compared with warfarin alone in patients with nonvalvular atrial fibrillation (PETRO study), Am. […] The PETRO study is described below.
As noted above, management of warfarin therapy is complex, and failure to adequately monitor patients is associated with risk. […] It also interacts with many common foods, drugs and alcohol which alter its therapeutic effect, putting patients at risk of either a bleeding or thrombotic event. Therefore, warfarin therapy requires careful individualized dosing and frequent monitoring. The significant limitations of VKAs have created a need for an oral anticoagulant with a rapid onset of action, minimal drug interactions, and a predictable anticoagulation effect that needs no monitoring.
Peak levels are seen within 2-3 hours of oral administration. […] Steady-state is reached within 2-3 days with a twice daily regimen. […] The remainder undergoes conjugation with glucuronic acid to form acylglucuronides which are excreted primarily in the bile.

[3] = test system: patients with atrial fibrillation
Procedure: PETRO-Ex began while the PETRO study was ongoing and investigators were initially kept blinded to patient treatment group until PETRO was completed. Unblinding investigators to patient treatment was possible thereafter.
Data were summarized descriptively; no hypothesis was to be tested. Events were analyzed on the basis of the treatment at onset. Incidences were reported as number of patients with events as well as normalized to 100 patient-years on the respective treatment.
Written, informed consent was obtained from all patients.
Patients who completed PETRO on 50 mg b.i.d. were switched to 150 mg q.d. upon entry in the PETRO-Ex study (N=93 patients). […] Patients who were down titrated to 50 mg q.d. based on a glomerular filtration rate ≦50 mL/min during PETRO were excluded from the long-term trial; patients down-titrated in other dose levels remained on the q.d. treatment at that dose.
The total exposure reflects both trials, PETRO and PETRO-Ex, together.

[4] = individual patients with LFT abnormalities, one table line per patient (age c0, sex c1), ^# = with concomitant Bilirubin elevation to >2xULN

CCCCCCOC(=O)NC(=N)c1ccc(NCc2nc3cc(C(=O)N(CCC(=O)OCC)c4ccccn4)ccc3n2C)cc1 [dabigatran etexilate, 1-methyl-2-[N-[4-(N-n-hexyloxycarbonylamidino)phenyl]aminomethyl]benzimidazol-5-ylcarboxylic acid-N-(2-pyridyl)-N-(2-ethoxycarbonylethyl)amides]
Major bleeding events ([1]; 300 mg b.i.d. plus ASA groups): 6% | Major bleeding events, number ([1]; 300 mg b.i.d. plus ASA groups): Four | Minor bleeding ([1]; 50, 150, 300 mg b.i.d.): dose related | Onset of anticoagulant effect [2]: within one hour | ALT or AST >2xULN, subjects with event ([3]; 50 mg b.i.d.): 0 | ALT or AST >3xULN and Bili >2xULN within 30 days, subjects with event ([3]; 50 mg b.i.d.): 0 | ALT or AST >3xULN, subjects with event ([3]; 50 mg b.i.d.): 0 | ALT or AST >5xULN, subjects with event ([3]; 50 mg b.i.d.): 0 | Adverse Events leading to premature discontinuation, rate ([3]; 50 mg b.i.d.): 21.3 % per year | Adverse Events leading to premature discontinuation, subjects with event ([3]; 50 mg b.i.d.): 5 | MI, subjects with event ([3]; 50 mg b.i.d.): 0 | Major Bleeds with aspirin, subjects with event ([3]; 50 mg b.i.d.): 0 | Major Bleeds without aspirin, subjects with event ([3]; 50 mg b.i.d.): 0 | Major Bleeds, subjects with event ([3]; 50 mg b.i.d.): 0 | Other MACE, subjects with event ([3]; 50 mg b.i.d.): 2 | Stroke and Systemic Thromboembolism, subjects with event ([3]; 50 mg b.i.d.): 3 | TIA, subjects with event ([3]; 50 mg b.i.d.): 0 | ALT or AST >2xULN, subjects with event ([3]; 50 mg q.d.): 0 | ALT or AST >3xULN and Bili >2xULN within 30 days, subjects with event ([3]; 50 mg q.d.): 0 | ALT or AST >3xULN, subjects with event ([3]; 50 mg q.d.): 0 | ALT or AST >5xULN, subjects with event ([3]; 50 mg q.d.): 0 | Adverse Events leading to premature discontinuation, subjects with event ([3]; 50 mg q.d.): 0 | MI, subjects with event ([3]; 50 mg q.d.): 0 | Major Bleeds with aspirin, subjects with event ([3]; 50 mg q.d.): 0 | Major Bleeds without aspirin, subjects with event ([3]; 50 mg q.d.): 0 | Major Bleeds, subjects with event ([3]; 50 mg q.d.): 0 | Other MACE, subjects with event ([3]; 50 mg q.d.): 0 | Stroke and Systemic Thromboembolism, subjects with event ([3]; 50 mg q.d.): 0 | TIA, subjects with event ([3]; 50 mg q.d.): 0 | ALT or AST >2xULN, rate ([3]; 150 mg b.i.d.): 3.1 % per year | ALT or AST >2xULN, subjects with event ([3]; 150 mg b.i.d.): 21 | ALT or AST >3xULN and Bili >2xULN within 30 days, rate ([3]; 150 mg b.i.d.): 0.4 % per year | ALT or AST >3xULN and Bili >2xULN within 30 days, subjects with event ([3]; 150 mg b.i.d.): 3 | ALT or AST >3xULN, rate ([3]; 150 mg b.i.d.): 1.9 % per year | ALT or AST >3xULN, subjects with event ([3]; 150 mg b.i.d.): 13 | ALT or AST >5xULN, rate ([3]; 150 mg b.i.d.): 1.0 % per year | ALT or AST >5xULN, subjects with event ([3]; 150 mg b.i.d.): 7 | Adverse Events leading to premature discontinuation, rate ([3]; 150 mg b.i.d.): 9.8 % per year | Adverse Events leading to premature discontinuation, subjects with event ([3]; 150 mg b.i.d.): 67 | MI, subjects with event ([3]; 150 mg b.i.d.): 6 | Major Bleeds with aspirin, rate ([3]; 150 mg b.i.d.): 8.7 % per year | Major Bleeds with aspirin, subjects with event ([3]; 150 mg b.i.d.): 11 | Major Bleeds without aspirin, rate ([3]; 150 mg b.i.d.): 3.2 % per year | Major Bleeds without aspirin, subjects with event ([3]; 150 mg b.i.d.): 18 | Major Bleeds, rate ([3]; 150 mg b.i.d.): 4.2 % per year | Major Bleeds, subjects with event ([3]; 150 mg b.i.d.): 29 | Other MACE, subjects with event ([3]; 150 mg b.i.d.): 7 | Stroke and Systemic Thromboembolism, subjects with event ([3]; 150 mg b.i.d.): 7 | TIA, subjects with event ([3]; 150 mg b.i.d.): 1 | ALT or AST >2xULN, rate ([3]; 150 mg q.d.): 3.4 % per year | ALT or AST >2xULN, subjects with event ([3]; 150 mg q.d.): 2 | ALT or AST >3xULN and Bili >2xULN within 30 days, subjects with event ([3]; 150 mg q.d.): 0 | ALT or AST >3xULN, subjects with event ([3]; 150 mg q.d.): 0 | ALT or AST >5xULN, subjects with event ([3]; 150 mg q.d.): 0 | Adverse Events leading to premature discontinuation, rate ([3]; 150 mg q.d.): 13.7 % per year | Adverse Events leading to premature discontinuation, subjects with event ([3]; 150 mg q.d.): 8 | MI, subjects with event ([3]; 150 mg q.d.): 0 | Major Bleeds with aspirin, subjects with event ([3]; 150 mg q.d.): 0 | Major Bleeds without aspirin, rate ([3]; 150 mg q.d.): 6.5 % per year | Major Bleeds without aspirin, subjects with event ([3]; 150 mg q.d.): 3 | Major Bleeds, rate ([3]; 150 mg q.d.): 5.1 % per year | Major Bleeds, subjects with event ([3]; 150 mg q.d.): 3 | Other MACE, subjects with event ([3]; 150 mg q.d.): 0 | Stroke and Systemic Thromboembolism, subjects with event ([3]; 150 mg q.d.): 3 | TIA, subjects with event ([3]; 150 mg q.d.): 0 | ALT or AST >2xULN, rate ([3]; 300 mg b.i.d.): 4.9 % per year | ALT or AST >2xULN, subjects with event ([3]; 300 mg b.i.d.): 4 | ALT or AST >3xULN and Bili >2xULN within 30 days, subjects with event ([3]; 300 mg b.i.d.): 0 | ALT or AST >3xULN, rate ([3]; 300 mg b.i.d.): 2.4 % per year | ALT or AST >3xULN, subjects with event ([3]; 300 mg b.i.d.): 2 | ALT or AST >5xULN, rate ([3]; 300 mg b.i.d.): 1.2 % per year | ALT or AST >5xULN, subjects with event ([3]; 300 mg b.i.d.): 1 | Adverse Events leading to premature discontinuation, rate ([3]; 300 mg b.i.d.): 25.6 % per year | Adverse Events leading to premature discontinuation, subjects with event ([3]; 300 mg b.i.d.): 21 | MI, subjects with event ([3]; 300 mg b.i.d.): 0 | Major Bleeds with aspirin, rate ([3]; 300 mg b.i.d.): 32.7 % per year | Major Bleeds with aspirin, subjects with event ([3]; 300 mg b.i.d.): 6 | Major Bleeds without aspirin, rate ([3]; 300 mg b.i.d.): 6.3 % per year | Major Bleeds without aspirin, subjects with event ([3]; 300 mg b.i.d.): 4 | Major Bleeds, rate ([3]; 300 mg b.i.d.): 12.2 % per year | Major Bleeds, subjects with event ([3]; 300 mg b.i.d.): 10 | Other MACE, subjects with event ([3]; 300 mg b.i.d.): 1 | Stroke and Systemic Thromboembolism, subjects with event ([3]; 300 mg b.i.d.): 1 | TIA, subjects with event ([3]; 300 mg b.i.d.): 0 | ALT or AST >2xULN, rate ([3]; 300 mg q.d.): 1.5 % per year | ALT or AST >2xULN, subjects with event ([3]; 300 mg q.d.): 3 | ALT or AST >3xULN and Bili >2xULN within 30 days, rate ([3]; 300 mg q.d.): 0.5 % per year | ALT or AST >3xULN and Bili >2xULN within 30 days, subjects with event ([3]; 300 mg q.d.): 1 | ALT or AST >3xULN, rate ([3]; 300 mg q.d.): 1.5 % per year | ALT or AST >3xULN, subjects with event ([3]; 300 mg q.d.): 3 | ALT or AST >5xULN, rate ([3]; 300 mg q.d.): 1.5 % per year | ALT or AST >5xULN, subjects with event ([3]; 300 mg q.d.): 3 | Adverse Events leading to premature discontinuation, rate ([3]; 300 mg q.d.): 9.6 % per year | Adverse Events leading to premature discontinuation, subjects with event ([3]; 300 mg q.d.): 19 | MI, subjects with event ([3]; 300 mg q.d.): 1 | Major Bleeds with aspirin, rate ([3]; 300 mg q.d.): 3.6 % per year | Major Bleeds with aspirin, subjects with event ([3]; 300 mg q.d.): 2 | Major Bleeds without aspirin, rate ([3]; 300 mg q.d.): 2.1 % per year | Major Bleeds without aspirin, subjects with event ([3]; 300 mg q.d.): 3 | Major Bleeds, rate ([3]; 300 mg q.d.): 2.5 % per year | Major Bleeds, subjects with event ([3]; 300 mg q.d.): 5 | Other MACE, subjects with event ([3]; 300 mg q.d.): 1 | Stroke and Systemic Thromboembolism, subjects with event ([3]; 300 mg q.d.): 5 | TIA, subjects with event ([3]; 300 mg q.d.): 0 | Serious adverse events: cardiac disorders, number of patients ([3]; PETRO-Ex): 80 | Serious adverse events: gastrointestinal disorders, number of patients ([3]; PETRO-Ex): 28 | Serious adverse events: infections, number of patients ([3]; PETRO-Ex): 34 | Serious adverse events: nervous system disorders, number of patients ([3]; PETRO-Ex): 33 | Serious adverse events, number of patients ([3]; PETRO-Ex, including bleeding and thrombotic events): 184 | ALT or AST >2xULN, rate ([3]; Total (all doses)): 2.9 % per year | ALT or AST >2xULN, subjects with event ([3]; Total (all doses)): 30 | ALT or AST >3xULN and Bili >2xULN within 30 days, rate ([3]; Total (all doses)): 0.4 % per year | ALT or AST >3xULN and Bili >2xULN within 30 days, subjects with event ([3]; Total (all doses)): four | ALT or AST >3xULN, rate ([3]; Total (all doses)): 1.7 % per year | ALT or AST >3xULN, subjects with event ([3]; Total (all doses)): 18 | ALT or AST >5xULN, rate ([3]; Total (all doses)): 1.1 % per year | ALT or AST >5xULN, subjects with event ([3]; Total (all doses)): 11 | Adverse Events leading to premature discontinuation, rate ([3]; Total (all doses)): 11.5 % per year | Adverse Events leading to premature discontinuation, subjects with event ([3]; Total (all doses)): 120 | MI, subjects with event ([3]; Total (all doses)): 7 | Major Bleeds with aspirin, rate ([3]; Total (all doses)): 8.5 % per year | Major Bleeds with aspirin, subjects with event ([3]; Total (all doses)): 19 | Major Bleeds without aspirin, rate ([3]; Total (all doses)): 3.2 % per year | Major Bleeds without aspirin, subjects with event ([3]; Total (all doses)): 26 | Major Bleeds, rate ([3]; Total (all doses)): 4.2 % per year | Major Bleeds, subjects with event ([3]; Total (all doses)): 44 | Other MACE, subjects with event ([3]; Total (all doses)): 11 | Stroke and Systemic Thromboembolism, subjects with event ([3]; Total (all doses)): 20 | TIA, subjects with event ([3]; Total (all doses)): 1 | ALT or AST >3xULN and Bili >2xULN within 30 days, subjects with event ([3]; Total (all doses), listed as Dabigatran etexilate): 4 | Risk ratio of bleeding event rate on concomitant aspirin vs. without ([3]; in vivo): 2.70 | Final Outcome/Comment of LFT abnormality ([3]; individual patients with LFT abnormalities, one table line per patient (age c0, sex c1)): Recovered | LFT abnormality ALT/ULN [3, 4]: >5x xULN (4×) and >5x^# xULN (2×) and >3x xULN (5×) and >3x^# xULN | LFT abnormality AST/ULN [3, 4]: >5x^# xULN (4×) and >5x xULN (4×) and >3x xULN (5×) | Final Outcome/Comment of LFT abnormality ([3]; individual patients with LFT abnormalities, one table line per patient (age c0, sex c1), listed as Dabigatran etexilate): Fatal
